Values of other authors, collected in patent publication US20090143360A1, “Oxcarbazepine Formulation” (priority 2005, published 2009).

Solubility in water: very low
SMILES: NC(=O)N1c2ccccc2CC(=O)c2ccccc21 [Oxcarbazepine, 10,11-Dihydro-10-oxo-5H-dibenz[b,f]azepine-5-carboxamide]
